Experimental findings from PMC12406199, “NanoDSF Screening for Anti-tubulin Agents Uncovers New Structure–Activity Insights” (Journal of Medicinal Chemistry, 2025) are described below.

Counter-ions that a name gives are not always drawn.

The target in one assay is tubulin (Ovis aries, UniProt D0VWY9+D0VWZ0). The assay is described as follows: nanoDSF screen, shift of polymerization temperature at about […]. It is filed as biochemical.
Chain of tubulin (D0VWY9 entry or part of it): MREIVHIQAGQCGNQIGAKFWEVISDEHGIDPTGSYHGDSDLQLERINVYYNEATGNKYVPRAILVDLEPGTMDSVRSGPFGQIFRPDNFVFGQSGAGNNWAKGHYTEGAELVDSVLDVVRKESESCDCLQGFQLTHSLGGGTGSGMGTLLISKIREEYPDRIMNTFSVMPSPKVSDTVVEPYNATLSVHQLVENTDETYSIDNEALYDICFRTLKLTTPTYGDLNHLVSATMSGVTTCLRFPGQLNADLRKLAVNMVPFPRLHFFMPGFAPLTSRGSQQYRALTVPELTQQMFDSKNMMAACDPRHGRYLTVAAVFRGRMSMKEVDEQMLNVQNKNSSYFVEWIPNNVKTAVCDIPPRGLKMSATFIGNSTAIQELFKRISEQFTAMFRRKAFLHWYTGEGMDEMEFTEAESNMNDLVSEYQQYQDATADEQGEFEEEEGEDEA
Chain of tubulin (D0VWZ0 entry or part of it): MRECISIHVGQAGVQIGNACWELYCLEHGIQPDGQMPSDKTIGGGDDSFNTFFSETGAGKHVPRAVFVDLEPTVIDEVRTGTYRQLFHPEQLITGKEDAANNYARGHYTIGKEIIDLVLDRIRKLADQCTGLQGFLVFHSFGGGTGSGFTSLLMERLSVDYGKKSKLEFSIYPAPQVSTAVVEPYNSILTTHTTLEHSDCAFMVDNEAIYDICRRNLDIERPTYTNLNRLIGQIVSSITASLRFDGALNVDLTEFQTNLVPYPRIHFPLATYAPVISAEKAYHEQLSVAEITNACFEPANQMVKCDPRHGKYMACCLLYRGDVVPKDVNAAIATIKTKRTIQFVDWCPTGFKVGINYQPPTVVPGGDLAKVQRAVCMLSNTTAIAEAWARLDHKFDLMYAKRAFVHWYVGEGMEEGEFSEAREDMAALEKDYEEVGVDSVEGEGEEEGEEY
Conditions: not given
Consider `CCCSc1ccc2nc(NC(=O)OC)[nH]c2c1` [ABZ, Albendazole], for which the ΔTm (in general, the shift of the melting midpoint relative to a reference) at 50 µM turned out to be 6.4 °C. Regarding `COC(=O)Nc1nc2ccc(C(=O)c3cccs3)cc2[nH]1` [NCZ, Nocodazole], the ΔTm at 50 µM worked out at 6 °C.

Another assay has as its system U87MG. The assay is described as follows: cells. On the set-up: MTT viability assay on U87MG glioblastoma cells. The settings on record: Homo sapiens, U-87 MG, 72 h. Here is the method: Glioblastoma cell culture routines, viability, and proliferation assays were performed as previously described. U87MG cells were maintained in complete MEM media supplemented with 10% FBS and 2 mM L-glutamine (Invitrogen, Paris, France). For cytotoxicity assays, cells were counted and plated in 96-well flat-bottom plates (50,000 cells/mL, 5000 cells per well). After 24 h, the cells were treated with increasing concentrations of the MTAs (0, 1, 5, 10, and 20–40 μM) in a vehicle solution, containing 0.05% DMSO. All concentrations were done in triplicates. The surviving cells were quantified after 72 h by the tetrazolium bromide MTT-assay, according to the manufacturer’s instructions. After cell lysis, the optical density was measured at 600 nm using a Multiskan MS Thermo plate reader (LabSystems, Waltham, MA, USA).
Turning to `CSc1nc2cc(Cl)c(Oc3cccc(Cl)c3Cl)cc2[nH]1` [TCZ, Triclabendazole], the IC50 (as a rule, the point on the concentration scale where inhibition reaches its midpoint) was determined as 15.1 ± 0.9 µM. The compound `CCN(CC)C(=S)SSC(=S)N(CC)CC` [DFM, Disulfiram] returned a half-maximal inhibitory concentration (IC50) of 12 ± 1.6 µM. The IC50 values of the last two compounds are within 1.5-fold of each other.

`C/C=C(/C(=C/C)c1ccc(O)cc1)c1ccc(O)cc1` [DE, Dienestrol] returned an IC50 of 23.6 ± 1 µM. As to `CNCCCC1c2ccccc2C=Cc2ccccc21` [PTP, Protriptyline hydrochloride], the IC50 amounted to 17.7 ± 1.5 µM.

The compound `CCc1oc2ccccc2c1C(=O)c1cc(Br)c(O)c(Br)c1` [BZB, Benzbromarone] registered an IC50 of 62.1 ± 2.8 µM. Against the preceding compound, the IC50 is about 3.5-fold higher. With `O=c1c2ccccc2[se]n1-c1ccccc1` [EBS, Ebselen], half-maximal inhibition (IC50) was put at 50.9 ± 32.7 µM. In turn, `N#CC(c1ccc(Cl)cc1)c1c(Cl)cc(-n2ncc(=O)[nH]c2=O)cc1Cl` (stereo not drawn) [DCZ, Diclazuril] yielded an IC50 of 48.9 ± 6 µM. In turn, `COC(=O)Nc1nc2cc(C(=O)c3ccc(F)cc3)ccc2[nH]1` [FLU, Flubendazol] registered a half-maximal inhibitory concentration (IC50) of 0.6 µM. Same read-out and setting: for `COC(=O)C1=C(C)NC(C)=C(C(=O)OCC(C)C)C1c1ccccc1[N+](=O)[O-]` (stereo not drawn) [NSD, Nisoldipine] the value was 25.3 ± 1.6 µM; for `C[C@H]1[C@H](OC(=O)CCC(=O)O)O[C@@H]2O[C@@]3(C)CC[C@H]4[C@H](C)CC[C@@H]1[C@@]24OO3` [ASN, Artesunate], 24 ± 4.1 µM.

Turning to `O=C1NCCN1CCN1CCC(c2cn(-c3ccc(F)cc3)c3ccc(Cl)cc23)CC1` [STD, Sertindole], the half-inhibitory concentration (IC50) is 6.7 ± 0.2 µM.

`CN(C)c1ccc2nc3ccc(=[N+](C)C)cc-3sc2c1` [MB, Methylene Blue]: it took 64.2 ± 9.9 µM to reach half-maximal inhibition (IC50). On the same count and under the same terms, then `Nc1cc(C(Cl)=C(Cl)Cl)c(S(N)(=O)=O)cc1S(N)(=O)=O` [CLS, Clorsulon], with 66.8 ± 13.3 µM. On to `Clc1ccc(C(c2ccccc2Cl)C(Cl)Cl)cc1` (stereo not drawn) [MTT, Mitotane], for which the 50% inhibitory concentration (IC50) was 23.7 ± 2.7 µM. Compared with the last compound, the IC50 is about 2.8-fold lower. Consider `Clc1ccc(C(Cn2ccnc2)OCc2csc3c(Cl)cccc23)c(Cl)c1` (stereo not drawn) [STZ, Sertaconazole nitrate], for which half-maximal inhibition (IC50) required 10.7 ± 1.3 µM.

As to `O[C@@H](c1cc(C(F)(F)F)nc2c(C(F)(F)F)cccc12)[C@H]1CCCCN1` (racemic) [MFQ, Mefloquine], the IC50 was 11.6 ± 1.2 µM.

Take `C[C@@H](O[C@H]1OCCN(Cc2n[nH]c(=O)[nH]2)[C@H]1c1ccc(F)cc1)c1cc(C(F)(F)F)cc(C(F)(F)F)c1` [APT, Aprepitant]: it took 41.8 ± 31.8 µM to reach half-maximal inhibition (IC50). In turn, `COc1ccc(C(=O)c2ccccc2)c(O)c1` [OXY, Oxybenzone] displayed an IC50 of 14.4 ± 7 µM. In turn, `Cc1cc2nc3ccc(N(C)C)cc3[s+]c2cc1N` [TBO, Tolonium (Toluidine Blue O)] had an IC50 of 6.3 ± 0.3 µM. Against the preceding compound, the IC50 is about 2.3-fold lower.

In turn, `COC1=CC(=O)C[C@@H](C)[C@]12Oc1c(Cl)c(OC)cc(OC)c1C2=O` [GSF, Griseofulvin] yielded an IC50 of 24.4 ± 3.7 µM. The compound `c1ccc2c(c1)Nc1ccccc1S2` [PTZ, Phenothiazine] gave an IC50 of 60.2 ± 9.2 µM. Consider `Clc1ccc(C(Cn2ccnc2)OCc2ccsc2Cl)c(Cl)c1` (stereo not drawn) [TOZ, Tioconazole], for which inhibition was half-maximal at 18.3 ± 1.4 µM (IC50). Consider `CCCOc1ccc2[nH]c(NC(=O)OC)nc2c1` [OBZ, Oxibendazol], for which the IC50 amounted to 1.8 ± 0.3 µM. Compound `CCOC(=O)C1=C(C)NC(C)=C(C(=O)OC)C1c1cccc([N+](=O)[O-])c1` (stereo not drawn) [NTD, Nitrendipine] showed an IC50 of 36.8 ± 3.3 µM.

Compound `Clc1ccc(C(Cn2ccnc2)OCc2c(Cl)cccc2Cl)c(Cl)c1` (stereo not drawn) [ICZ, Isoconazole] showed an IC50 of 33.1 ± 1.8 µM. Same read-out and setting: then `CN(C)CCCN1c2ccccc2Sc2ccc(Cl)cc21` [CPZ, Chlorpromazine], with 4.5 ± 0.5 µM; and `COC(=O)Nc1nc2cc([S+]([O-])c3ccccc3)ccc2[nH]1` (stereo not drawn) [OFZ, Oxfendazole], with 17 ± 1 µM. `O=C1Nc2ccc(Cl)cc2[C@@](C#CC2CC2)(C(F)(F)F)O1` [EFV, Efavirenz] displayed an IC50 of 26.7 ± 2.6 µM. This IC50 is about 1.6-fold higher than that of the compound before. `C[C@]12CC[C@@H]3c4ccc(O)cc4CC[C@H]3[C@@H]1CC[C@@H]2O` [ED, 17β-estradiol] displayed an IC50 of 30.7 ± 1.9 µM. Still for that read-out and setting: for `CCCSc1ccc2nc(NC(=O)OC)[nH]c2c1` [ABZ, Albendazole] the value was 0.3 µM. In turn, `CNCCC=C1c2ccccc2C=Cc2ccccc21` [nCBP, Norcyclobenzaprine] registered an IC50 of 15.2 ± 0.8 µM. Consider `C#C[C@]1(O)CC[C@H]2[C@@H]3CCc4cc(O)ccc4[C@H]3CC[C@@]21C` [EES, Ethinylestradiol], for which half-maximal inhibition (IC50) was put at 15.7 ± 0.8 µM.

Regarding `Cc1c(C)c2c(c(C)c1O)CCC(C)(COc1ccc(CC3SC(=O)NC3=O)cc1)O2` (stereo not drawn) [TGZ, Troglitazone], the IC50 was determined as 39.5 ± 1 µM. In turn, `CN(C)CCOc1ccc(/C(=C(/CCCl)c2ccccc2)c2ccccc2)cc1` [TMF, Toremifene] came in with an IC50 of 13.3 ± 1.9 µM. Turning to `Oc1ccc(Cl)cc1Cc1cc(Cl)ccc1O` [DCP, Dichlorophen], the IC50 was 7.7 ± 1.2 µM. Turning to `N=C(N)Nc1ccc(C(=O)Oc2ccc3cc(C(=N)N)ccc3c2)cc1` [NFM, Nafamostat], the 50% inhibitory concentration (IC50) was determined as 45.2 ± 6.1 µM. Compound `Oc1c(Cl)cc(Cl)c(Cl)c1Cc1c(O)c(Cl)cc(Cl)c1Cl` [HCP, Hexachlorophene] registered an IC50 of 5.1 ± 0.7 µM. This IC50 is about 8.9-fold lower than that of the compound before. On the same count and under the same terms, for `OCCN1CCN(CCCN2c3ccccc3Sc3ccc(Cl)cc32)CC1` [PPZ, Perphenazine] the value was 9.8 ± 0.4 µM; for `CN1CCN(CCCN2c3ccccc3Sc3ccc(C(F)(F)F)cc32)CC1` [TFP, Trifluoperazine], 17.3 ± 3.2 µM. In turn, `OCCN1CCN(CC/C=C2/c3ccccc3Sc3ccc(C(F)(F)F)cc32)CC1` [FPX, Flupentixol] displayed an IC50 of 9.8 ± 1.8 µM. Against the preceding compound, the IC50 is about 1.8-fold lower.

Turning to `COC(=O)Nc1nc2ccc(Sc3ccccc3)cc2[nH]1` [FBZ, Fenbendazole], it took 0.2 µM to reach half-maximal inhibition (IC50). In turn, `C[C@]12C=CC(=O)C=C1CC[C@@H]1[C@@H]2CC[C@@]2(C)[C@H]1CC[C@]2(C)O` [MAS, Methandrostenolone] displayed an IC50 of 58.7 ± 5.1 µM. The same measure, in the same setting: then `Oc1cc(Cl)ccc1Oc1ccc(Cl)cc1Cl` [TCL, Triclosan], with 11.6 ± 0.5 µM; and `CN(C)CCCN1c2ccccc2Sc2ccc(C(F)(F)F)cc21` [TFZ, Triflupromazine], with 6.5 ± 0.6 µM; and `CC[C@H](c1ccc(O)cc1)[C@@H](CC)c1ccc(O)cc1` [Hexestrol], with 20.2 ± 0.5 µM. In turn, `CCOC(=O)C1=C(C)NC(C)=C(C(=O)OC)C1c1cccc(Cl)c1Cl` (stereo not drawn) [FDP, Felodipine] came in with an IC50 of 13.7 ± 4 µM. The same measure, in the same setting: then `CN(C)CC/C=C1/c2ccccc2Sc2ccc(Cl)cc21` [CPX, Chlorprothixene], with 27.6 ± 2.2 µM. On the same count and under the same terms, then `CC(C)c1cccc(C(C)C)c1O` [PPF, Propofol], with 26.6 ± 2.5 µM; and `CCc1oc2ccccc2c1C(=O)c1ccc(O)cc1` [BZ, Benzarone], with 7.4 ± 0.7 µM. `COC(=O)Nc1nc2ccc(C(=O)c3cccs3)cc2[nH]1` [NCZ, Nocodazole] displayed a half-inhibitory concentration (IC50) below 0.1 µM. For the compound `CNCCC=C1c2ccccc2CCc2ccccc21` [NTP, Nortriptyline], the IC50 was found to be 20.5 ± 1.5 µM. The same measure, in the same setting: then `CCSc1ccc2c(c1)N(CCCN1CCN(C)CC1)c1ccccc1S2` [TEP, Thiethylperazine], with 8.4 ± 0.2 µM.
